These results are taken from patent US8324179B2, “Nucleoside analogs for antiviral treatment” (Gilead Sciences, Inc., priority 2007, dated 2012).

In the first experiment the target is T1, HCV Δ21 NS5b polymerase (Hepatitis C virus genotype 1b, UniProt P26663).
T1 construct: 75 nM HCV Δ21 NS5b polymerase
T1 sequence (P26663 2420-2989, stated change not applied): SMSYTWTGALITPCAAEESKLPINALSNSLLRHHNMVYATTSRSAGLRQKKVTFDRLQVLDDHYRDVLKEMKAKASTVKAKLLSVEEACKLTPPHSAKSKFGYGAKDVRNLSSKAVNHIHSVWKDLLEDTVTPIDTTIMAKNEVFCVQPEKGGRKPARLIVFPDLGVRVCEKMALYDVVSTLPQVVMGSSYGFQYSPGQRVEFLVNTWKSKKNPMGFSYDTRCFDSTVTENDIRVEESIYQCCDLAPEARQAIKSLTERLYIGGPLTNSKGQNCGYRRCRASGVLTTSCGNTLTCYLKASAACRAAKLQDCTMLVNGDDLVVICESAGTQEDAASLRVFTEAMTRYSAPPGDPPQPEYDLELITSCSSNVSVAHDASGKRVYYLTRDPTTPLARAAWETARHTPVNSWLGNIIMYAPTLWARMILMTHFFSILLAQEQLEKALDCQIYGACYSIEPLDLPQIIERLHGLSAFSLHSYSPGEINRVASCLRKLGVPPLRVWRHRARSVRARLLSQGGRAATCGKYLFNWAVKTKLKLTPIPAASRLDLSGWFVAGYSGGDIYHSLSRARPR
The experiment is described as follows: NS5b polymerase assay (HCV IC50 determination). The class given is biochemical.
Conditions: not given
On the procedure:
Assay Protocol: NS5b polymerase assay (40 μL) was assembled by adding 28 μL polymerase mixture (final concentration: 50 mM Tris-HCl at pH 7.5, 10 mM KCL, 5 mM MgCl2, 1 mM DTT, 10 mM EDTA, 4 ng/μL of RNA template, and 75 nM HCV Δ21 NS5b polymerase) to assay plates followed by 4 μL of compound dilution. The polymerase and compound were pre-incubated at 35° C. for 10 minute before the addition of 8 μL of nucleotide substrate mixture (33P-α-labeled competing nucleotide at KM and 0.5 mM of the remaining three nucleotides). The assay plates were covered and incubated at 35° C. for 90 min. Reactions were then filtered through 96-well DEAE-81 filter plates via vacuum. The filter plates were then washed under vacuum with multiple volumes of 0.125 M NaHPO4, water, and ethanol to remove unincorporated label. Plates were then counted on TopCount to assess the level of product synthesis over background controls. The IC50 value was determined using Prism fitting program.
In general, IC50 refers to the concentration that gives 50% inhibition. In turn, `Nc1nc2c(ncn2[C@@H]2O[C@H](/C=C/P(=O)(O)OP(=O)(O)OP(=O)(O)O)C[C@H]2O)c(=O)[nH]1` [Compound 9.12] came in with an IC50 above 100 µM. Still for that read-out and setting: the figure for `NC(=O)c1ncn([C@@H]2O[C@H](/C=C/P(=O)(O)OP(=O)(O)OP(=O)(O)O)C[C@H]2O)n1` [Compound 54.4] is above 100 µM; for `COC1C(O)C(C=CP(=O)(O)OP(=O)(O)OP(=O)(O)O)OC1n1cnc2c(=O)[nH]c(N)nc21` (stereo not shown) [Compound 16.95] it is 10 to 100 µM. The same measure, in the same setting: the figure for `O=c1ccn([C@@H]2O[C@H](/C=C/P(=O)(O)OP(=O)(O)OP(=O)(O)O)[C@@H](O)[C@H]2F)c(=O)[nH]1` [Compound 58.7] is 10 to 100 µM. On the same count and under the same terms, the figure for `Nc1nc(N)c2nnn(C3OC(C=CP(=O)(O)OP(=O)(O)OP(=O)(O)O)CC3O)c2n1` (stereo not shown) [Compound 53.4] is above 100 µM; for `CN(NS(C)(=O)=O)c1ncnc2c1ncn2[C@@H]1O[C@H](/C=C/P(=O)(O)OP(=O)(O)OP(=O)(O)O)C[C@H]1O` [Compound 60.5] it is above 100 µM; for `Nc1ncnc2c1ncn2[C@@H]1O[C@H](/C=C/P(=O)(O)OP(=O)(O)OP(=O)(O)O)[C@@H](O)[C@H]1F` [Compound 55.7] it is below 10 µM. In turn, `Nc1ncnc2c1ncn2[C@@H]1O[C@H](/C=C/P(=O)(O)OP(=O)(O)OP(=O)(O)O)[C@@H](O)[C@@H]1F` [Compound 56.5] came in with an IC50 above 100 µM.

`O=C1C=Cc2nn([C@@H]3O[C@H](/C=C/P(=O)(O)OP(=O)(O)OP(=O)(O)O)C[C@H]3O)c3ncnc(c23)N1` [Compound 52.6] yielded an IC50 below 10 µM. As for `Nc1nc2c(nnn2[C@@H]2O[C@H](/C=C/P(=O)(O)OP(=O)(O)OP(=O)(O)O)C[C@H]2O)c(=O)[nH]1` [Compound 10.4], the concentration for half-maximal inhibition (IC50) is above 100 µM.

For the compound `Nc1ncnc2c1nnn2C1OC(C=CP(=O)(O)OP(=O)(O)OP(=O)(O)O)CC1O` (stereo not shown) [Compound 38.4], the IC50 is 10 to 100 µM. With `Nc1ncnc2c1nnn2[C@@H]1O[C@H](/C=C/P(=O)(O)OP(=O)(O)OP(=O)(O)O)[C@@H](O)[C@H]1O` [Compound 6.8], the IC50 was above 100 µM.

The next experiment relates to Replicon cells. The experiment is described as follows: HCV EC50 determination, replicon luciferase assay. The experiment is classed as cell-based. The conditions noted are these: 3 days, luciferase activity, read-out: Replicon inhibiting potency EC50. As to the method: Replicon cells were seeded in 96-well plates at a density of 8×10^3 cells per well in 100 μL of culture medium, excluding Geneticin. Compound was serially diluted in 100% DMSO and then added to the cells at a 1:200 dilution, achieving a final concentration of 0.5% DMSO and a total volume of 200 μL. Plates were incubated at 37° C. for 3 days, after which culture medium was removed and cells were lysed in lysis buffer provided by Promega's luciferase assay system. Following the manufacturer's instruction, 100 μL of luciferase substrate was added to the lysed cells and luciferase activity was measured in a TopCount luminometer.
For orientation: EC50 means the concentration at which the effect is half-maximal. With `CCCCOC(=O)[C@H](C)NP(=O)(/C=C/[C@@H]1C[C@@H](O)[C@H](n2cnc3c(=O)[nH]c(N)nc32)O1)N[C@@H](C)C(=O)OCCCC` [Compound 9.11], the EC50 was below 10 µM. Turning to `CCCCOC(=O)[C@H](C)NP(=O)(/C=C/[C@H]1O[C@@H](n2cnc3c(N)ncnc32)[C@@H](F)[C@@H]1O)N[C@@H](C)C(=O)OCCCC` [Compound 56.6], the EC50 was below 10 µM. Turning to “{2-[5-(4-Amino-2-oxo-2H-pyridin-1-yl)-4-hydroxy-tetrahydro-furan-2-yl]-vinyl}-phosphonic acid [Compound 11.2]”, the EC50 is above 100 µM. `Nc1ncnc2c1cnn2[C@@H]1O[C@H](/C=C/P(=O)(O)O)[C@@H](O)[C@H]1O` [Compound 25.3, (E)-2-((2R,3S,4R,5R)-5-(4-amino-1H-pyrazolo[3,4-d]pyrimidin-1-yl)-3.4-dihydroxy-tetrahydrofuran-2-yl)vinylphosphonic acid]: the EC50 was above 100 µM.

The same experiment, now with this note: Hepatitis C virus, 72 h, 3 days, luciferase activity, read-out: Replicon inhibiting potency EC50.
For the compound `Nc1ncnc2c1ncn2C1OC(C=CP(=O)(O)O)CC1O` (stereo not shown) [Compound 12.2, {2-[5-(6-Amino-purin-9-yl)-4-hydroxy-tetrahydro-furan-2-yl]-vinyl}-phosphonic acid], the EC50 is below 10 µM. The same measure, in the same setting: the figure for `CNc1nc(N)nc2c1ncn2C1OC(C=CP(=O)(O)O)CC1O` (stereo not shown) [Compound 46.3, {2-[5-(2-Amino-6-methylamino-purin-9-yl)-4-hydroxy-tetrahydro-furan-2-yl]-vinyl}-phosphonic acid] is above 100 µM; for `CCCCOC(=O)[C@H](C)NP(=O)(/C=C/[C@@]1(N=[N+]=[N-])O[C@@H](n2ccc(=O)[nH]c2=O)[C@H](O)[C@@H]1O)N[C@@H](C)C(=O)OCCCC` [Compound 48.7] it is 10 to 100 µM. For the compound `CNc1ncnc2c1ncn2C1OC(C=CP(=O)(O)O)CC1O` (stereo not shown) [Compound 47.2, {2-[4-Hydroxy-5-(6-methylamino-purin-9-yl)-tetrahydro-furan-2-yl]-vinyl}-phosphonic acid], the EC50 was above 100 µM. The same measure, in the same setting: the figure for `CCCCOC(=O)[C@H](C)NP(=O)(/C=C/[C@@H]1C[C@@H](O)[C@H](n2nnc3c(=O)[nH]c(N)nc32)O1)N[C@@H](C)C(=O)OCCCC` [Compound 10.3] is above 100 µM; for `Nc1nc2c(nnn2C2OC(C=CP(=O)(O)O)CC2O)c(=O)[nH]1` (stereo not shown) [Compound 10.2, {2-[5-(5-Amino-7-oxo-6,7-dihydro-[1,2,3]triazolo[4,5-d]pyrimidin-3-yl)-4-hydroxy-tetrahydro-furan-2-yl]-vinyl}-phosphonic acid] it is 10 to 100 µM; for `C[C@@]1(O)[C@H](O)[C@@H](/C=C/P(=O)(O)O)O[C@H]1n1nnc2c(N)ncnc21` [Compound 27.8, (E)-2-((2R,3R,4R,5R)-5-(7-amino-3H-[1,2,3]triazolo[4,5-d]pyrimidin-3-yl)-3,4-dihydroxy-4-methyl-tetrahydrofuran-2-yl)vinylphosphonic acid] it is above 100 µM. As to `Nc1ncnc2c1nnn2[C@@H]1O[C@H](/C=C/P(=O)(O)O)C[C@H]1O` [Compound 38.2, (E)-2-((2S,4R,5R)-5-(7-amino-3H-[1,2,3]triazolo[4,5-d]pyrimidin-3-yl)-4-hydroxy-tetrahydrofuran-2-yl)vinylphosphonic acid], the EC50 is above 100 µM. As for `O=c1ccn([C@@H]2O[C@H](/C=C/P(=O)(O)O)C[C@H]2O)c(=O)[nH]1` [Compound 50.6], the EC50 was above 100 µM.

As for `CCCCOC(=O)[C@H](C)NP(=O)(/C=C/[C@@H]1C[C@@H](O)[C@H](n2cnc(C(N)=O)n2)O1)N[C@@H](C)C(=O)OCCCC` [Compound 54.3], the EC50 is above 100 µM.

Regarding `Nc1nc2c(ncn2C2OC(C=CP(=O)(O)O)C(O)C2O)c(=O)[nH]1` (stereo not shown) [Compound 18.8, {2-[5-(2-Amino-6-oxo-1,6-dihydro-purin-9-yl)-3,4-dihydroxy-tetrahydro-furan-2-yl]-vinyl}-phosphonic acid], the EC50 is 10 to 100 µM.

In the case of `COC1C(O)C(C=CP(=O)(O)O)OC1n1ccc(N)nc1=O` (stereo not shown) [Compound 17.5, {2-[5-(4-Amino-2-oxo-2H-pyrimidin-1-yl)-3-hydroxy-4-methoxy-tetrahydro-furan-2-yl]-vinyl}-phosphonic acid], the EC50 is above 100 µM.

Regarding `CCCCOC(=O)[C@H](C)NP(=O)(/C=C/[C@H]1O[C@@H](n2cnc3c(N)ncnc32)[C@H](F)[C@@H]1O)N[C@@H](C)C(=O)OCCCC` [Compound 55.8], the EC50 was 10 to 100 µM. Regarding `COC1C(O)C(C=CP(=O)(O)O)OC1n1cnc2c(=O)[nH]c(N)nc21` (stereo not shown) [Compound 16.9, {2-[5-(2-Amino-6-oxo-1,6-dihydro-purin-9-yl)-3-hydroxy-4-methoxy-tetrahydro-furan-2-yl]-vinyl}-phosphonic acid], the EC50 is above 100 µM.

On to `Nc1ncnc2c1nnn2C1OC(CCP(=O)(O)O)C(O)C1O` (stereo not shown) [Compound 6.7, {2-[5-(7-Amino-[1,2,3]triazolo[4,5-d]pyrimidin-3-yl)-3,4-dihydroxy-tetrahydro-furan-2-yl]-ethyl}-phosphonic acid], for which the EC50 was above 100 µM. In the case of `Nc1ncnc2c1ncn2[C@@H]1O[C@H](/C=C/P(=O)(O)O)[C@@H](O)[C@H]1O` [Compound 24.4, (E)-2-((2R,3S,4R,5R)-5-(6-amino-9H-purin-9-yl)-3,4-dihydroxy-tetrahydrofuran-2-yl)vinylphosphonic acid], the 50% effective concentration (EC50) was above 100 µM. In the case of `CC(=O)Nc1nc2c(ncn2C2OC(C=CP(=O)(O)O)CC2OC(=O)c2ccccc2)c(=O)[nH]1` (stereo not shown) [Compound 9.10, Benzoic acid 2-(2-acetylamino-6-oxo-1,6-dihydro-purin-9-yl)-5-(2-phosphono-vinyl)-tetrahydro-furan-3-yl ester], the EC50 was in the range of 10 to 100 µM. On the same count and under the same terms, the figure for `Nc1nc(N)c2ncn(C3OC(C=CP(=O)(O)O)CC3O)c2n1` (stereo not shown) [Compound 13.2, {2-[5-(2,6-Diamino-purin-9-yl)-4-hydroxy-tetrahydro-furan-2-yl]-vinyl}-phosphonic acid] is above 100 µM.
